# Reference: patent US20240409585A1, “MACROCYCLIC IMMUNOMODULATORS” (priority 2021, published 2024)
# Numbered stars: 1 amine (or outer) side, 2 acyl side, 3 side chain; on linkers, the order of the positions; unused ones are H or OH. Bridge positions count the residues as written; N and C are the ends. Square brackets hold non-standard residues; d marks the D form. Peptide text beside a SMILES is read from it. * marks the point of attachment. ξ: configuration not given here. Phe(3,4-Cl2) = N[C@@H](Cc1ccc(Cl)c(Cl)c1)C(=O)O; Phe(4-COOH) = N[C@@H](Cc1ccc(C(=O)O)cc1)C(=O)O; Phe(3,4-F2) = N[C@@H](Cc1ccc(F)c(F)c1)C(=O)O; X16 = O=C([C@H](Cc1ccc2cnccc2c1)N[*:1])[*:2]; Bip = N[C@@H](Cc1ccc(-c2ccccc2)cc1)C(=O)O; X37 = O=C([C@H](Cc1cn[nH]c1)N[*:1])[*:2]; Phe(3-Me) = Cc1cccc(C[C@H](N)C(=O)O)c1; Val(3-OH) = CC(C)(O)[C@H](N)C(=O)O; 4Pal = N[C@@H](Cc1ccncc1)C(=O)O; Cha = N[C@@H](CC1CCCCC1)C(=O)O; Cit = NC(=O)NCCC[C@H](N)C(=O)O; Ile(3ξ) = CCC(C)[C@H](N)C(=O)O; AllylGly = C=CC[C@H](N)C(=O)O; Thr(3ξ) = CC(O)[C@H](N)C(=O)O; Carboxymethyl = O=C(O)C*; NMeA = CN[C@@H](C)C(=O)O; Nle = CCCC[C@H](N)C(=O)O; Orn = NCCC[C@H](N)C(=O)O; Dab = NCC[C@H](N)C(=O)O; Dap = NC[C@H](N)C(=O)O; ξC = NC(CS)C(=O)O
# Target: T1, PE-labeled human PD-L1-Ig binding to Jurkat cell line over-expressing human PD-1 (Jurkat-PD-1) (Homo sapiens, UniProt Q15116)
# T1 construct: expressed in transfected cells; host or cells: Jurkat
# Test: Jurkat-PD-1 Cell Binding High-Content Screening Assay (CBA): Method 1
# Details: Jurkat-hPD-1 cells, PE-labeled PD-L1-Ig 20 nM final; read-out: Jurkat HPDL1 PD1 IC50 (uM) (Method 1)
# T1 sequence (Q15116 25-288): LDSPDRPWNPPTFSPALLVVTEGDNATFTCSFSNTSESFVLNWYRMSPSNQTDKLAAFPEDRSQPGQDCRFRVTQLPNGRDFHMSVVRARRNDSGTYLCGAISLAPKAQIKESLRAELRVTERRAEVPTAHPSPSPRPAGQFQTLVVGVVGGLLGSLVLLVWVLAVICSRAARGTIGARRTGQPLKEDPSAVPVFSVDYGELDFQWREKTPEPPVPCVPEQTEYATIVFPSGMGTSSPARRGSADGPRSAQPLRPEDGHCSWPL
row,IC50 [µM],Compound
1,0.02,CCC(C)[C@@H]1NC(=O)[C@H](Cc2ccc(-c3ccccc3)cc2)NC(=O)[C@H](CC(C)C)NC(=O)[C@H](Cc2c[nH]c3ccccc23)NC(=O)[C@H](CC(=O)O)NC(=O)[C@H](Cc2ccc(C(=O)O)cc2)NC(=O)[C@H](Cc2ccc(OCC(=O)O)cc2)NC(=O)CSC[C@@H](C(=O)N[C@@H](CC(N)=O)C(N)=O)NC(=O)[C@H](CO)NC(=O)[C@H](C(C)(C)O)NC(=O)[C@H](CC2CCCCC2)NC(=O)[C@H](CCN)NC(=O)[C@@H](CC(C)C)NC(=O)[C@H](C)N(C)C1=O (stereo partly drawn) [Compound 1916] ({CH2CO}-Y(Carboxymethyl)[Phe(4-COOH)]DWL[Bip][Ile(3ξ)][NMeA][dL][Dab][Cha][Val(3-OH)]SCN-NH2; thioether N-14)
2,0.13,CC[C@H](C)[C@@H]1NC(=O)[C@H](Cc2ccc(-c3ccccc3)cc2)NC(=O)[C@H](C(C)C)NC(=O)[C@H](Cc2c[nH]c3ccccc23)NC(=O)[C@H](CC(=O)O)NC(=O)[C@H](Cc2ccc(O)cc2)NC(=O)[C@H](Cc2ccncc2)NC(=O)CSC[C@@H](C(N)=O)NC(=O)[C@H]([C@@H](C)O)NC(=O)[C@H](C(C)C)NC(=O)[C@H](CC(C)C)NC(=O)[C@H](CCN)NC(=O)[C@@H](CC(C)C)NC(=O)[C@H](C)N(C)C1=O [Compound 1632] ({CH2CO}-[4Pal]YDWV[Bip]I[NMeA][dL][Dab]LVTC-NH2; thioether N-14)
3,0.06,CC(C)C[C@@H]1NC(=O)[C@H](CCN)NC(=O)[C@@H](CC(C)C)NC(=O)[C@H](C)N(C)C(=O)[C@H](CCCNC(=N)N)NC(=O)[C@H](Cc2ccc(-c3ccccc3)cc2)NC(=O)[C@H](C(C)C)NC(=O)[C@H](Cc2c[nH]c3ccccc23)NC(=O)[C@H](CC(=O)O)NC(=O)[C@H](Cc2ccc(O)cc2)NC(=O)[C@H](CC(N)=O)NC(=O)CSC[C@@H](C(=O)NCC(N)=O)NC(=O)[C@H](CO)NC(=O)[C@H](C(C)C)NC1=O [Compound 1247] ({CH2CO}-NYDWV[Bip]R[NMeA][dL][Dab]LVSCG-NH2; thioether N-14)
4,0.05,CC(C)C[C@@H]1NC(=O)[C@H](CCCN)NC(=O)[C@@H](CC(C)C)NC(=O)[C@H](C)N(C)C(=O)[C@H](CCCNC(=N)N)NC(=O)[C@H](Cc2ccc(-c3ccccc3)cc2)NC(=O)[C@H](C(C)C)NC(=O)[C@H](Cc2c[nH]c3ccccc23)NC(=O)[C@H](CC(=O)O)NC(=O)[C@H](Cc2ccc(OCC(=O)O)cc2)NC(=O)[C@H](Cc2cnc[nH]2)NC(=O)CSC[C@@H](C(=O)N[C@@H](C)C(N)=O)NC(=O)[C@H]([C@@H](C)O)NC(=O)[C@H](C(C)C)NC1=O [Compound 1148] ({CH2CO}-HY(Carboxymethyl)DWV[Bip]R[NMeA][dL][Orn]LVTCA-NH2; thioether N-14)
5,0.06,C=CC[C@@H]1NC(=O)[C@H](Cc2cccc(C)c2)NC(=O)[C@H](CC(=O)O)NC(=O)[C@H](Cc2ccncc2)NC(=O)[C@H](Cc2ccc(OCC(=O)O)cc2)NC(=O)CSCC(C(=O)NCC(N)=O)NC(=O)[C@H](CO)NC(=O)[C@H](C(C)C)NC(=O)[C@H](CC(C)C)NC(=O)[C@H](CC(N)=O)NC(=O)[C@@H](CC(C)C)NC(=O)[C@H](C)N(C)C(=O)[C@H](CC=C)NC(=O)[C@H](Cc2ccc(-c3ccccc3)cc2)NC1=O (stereo partly drawn) [Compound 1883] ({CH2CO}-Y(Carboxymethyl)[4Pal]D[Phe(3-Me)][AllylGly][Bip][AllylGly][NMeA][dL]NLVS[ξC]G-NH2; thioether N-14)
6,0.15,CC(C)C[C@@H]1NC(=O)CSC[C@@H](C(=O)NCC(N)=O)NC(=O)[C@H](CO)NC(=O)[C@H](C(C)C)NC(=O)[C@H](CC(C)C)NC(=O)[C@H](CCCNC(=N)N)NC(=O)[C@@H](Cc2ccccc2)NC(=O)[C@H](C)N(C)C(=O)[C@H](CCCNC(=N)N)NC(=O)[C@H](Cc2ccc(-c3ccccc3)cc2)NC(=O)[C@H](C(C)C)NC(=O)[C@H](Cc2c[nH]c3ccccc23)NC(=O)[C@H](CC(=O)O)NC(=O)[C@H](Cc2ccc(O)cc2)NC1=O [Compound 1024] ({CH2CO}-LYDWV[Bip]R[NMeA][dF]RLVSCG-NH2; thioether N-14)
7,0.02,CC(C)C[C@@H]1NC(=O)[C@H](CC(N)=O)NC(=O)[C@@H](CC(C)C)NC(=O)[C@H](C)N(C)C(=O)[C@H](CCCNC(N)=O)NC(=O)[C@H](Cc2ccc(-c3ccccc3)cc2)NC(=O)[C@H](C(C)C)NC(=O)[C@H](Cc2c[nH]c3ccccc23)NC(=O)[C@H](CC(=O)O)NC(=O)[C@H](Cc2ccc(O)cc2)NC(=O)[C@H](Cc2ccccc2)NC(=O)CSC[C@@H](C(=O)N[C@@H](C)C(=O)N[C@@H](CN)C(=O)O)NC(=O)[C@H](CO)NC(=O)[C@H](C(C)C)NC1=O [Compound 2004] ({CH2CO}-FYDWV[Bip][Cit][NMeA][dL]NLVSCA[Dap]-OH; thioether N-14)
8,0.32,"CC(C)C[C@@H]1NC(=O)[C@H](CCCNC(=N)N)NC(=O)[C@@H](CC(C)C)NC(=O)[C@H](C)N(C)C(=O)[C@H](CCCNC(=N)N)NC(=O)[C@H](Cc2ccc(-c3ccccc3)cc2)NC(=O)[C@H](C(C)C)NC(=O)[C@H](Cc2ccc(Cl)c(Cl)c2)NC(=O)[C@H](CC(=O)O)NC(=O)[C@H](Cc2ccc(O)cc2)NC(=O)[C@H](CC(N)=O)NC(=O)CSC[C@@H](C(=O)N[C@@H](C)C(N)=O)NC(=O)[C@H]([C@@H](C)O)NC(=O)[C@H](C(C)C)NC1=O [Compound 1195] ({CH2CO}-NYD[Phe(3,4-Cl2)]V[Bip]R[NMeA][dL]RLVTCA-NH2; thioether N-14)"
9,0.02,CC(C)C[C@@H]1NC(=O)[C@H](CCN)NC(=O)[C@@H](CC(C)C)NC(=O)[C@H](C)N(C)C(=O)[C@H](CCCNC(N)=O)NC(=O)[C@H](Cc2ccc(-c3ccccc3)cc2)NC(=O)[C@H](C(C)C)NC(=O)[C@H](Cc2c[nH]c3ccccc23)NC(=O)[C@H](CC(=O)O)NC(=O)[C@H](Cc2ccc(O)cc2)NC(=O)[C@H](Cc2ccc3cnccc3c2)NC(=O)CSC[C@@H](C(=O)N[C@@H](C)C(N)=O)NC(=O)[C@H](C(C)O)NC(=O)[C@H](C(C)C)NC1=O (stereo partly drawn) [Compound 2037] ({CH2CO}-[X16]YDWV[Bip][Cit][NMeA][dL][Dab]LV[Thr(3ξ)]CA-NH2; thioether N-14)
10,0.69,"CC(C)C[C@@H]1NC(=O)[C@H](CCCNC(=N)N)NC(=O)[C@@H](CC(C)C)NC(=O)[C@H](C)N(C)C(=O)[C@H](CCCNC(=N)N)NC(=O)[C@H](Cc2ccc(-c3ccccc3)cc2)NC(=O)[C@H](C(C)C)NC(=O)[C@H](Cc2ccc(F)c(F)c2)NC(=O)[C@H](CC(=O)O)NC(=O)[C@H](Cc2ccc(O)cc2)NC(=O)[C@H](CC(N)=O)NC(=O)CSC[C@@H](C(=O)N[C@@H](C)C(N)=O)NC(=O)[C@H]([C@@H](C)O)NC(=O)[C@H](C(C)C)NC1=O [Compound 1194] ({CH2CO}-NYD[Phe(3,4-F2)]V[Bip]R[NMeA][dL]RLVTCA-NH2; thioether N-14)"
11,0.02,CCC(C)[C@@H]1NC(=O)[C@H](Cc2ccc(-c3ccccc3)cc2)NC(=O)[C@H](C(C)C)NC(=O)[C@H](Cc2c[nH]c3ccccc23)NC(=O)[C@H](CC(=O)O)NC(=O)[C@H](Cc2ccc(OCC(=O)O)cc2)NC(=O)[C@H](C(C)O)NC(=O)CSC[C@@H](C(=O)N[C@H](CC(N)=O)C(N)=O)NC(=O)[C@H](CO)NC(=O)[C@H](C(C)(C)O)NC(=O)[C@H](CC2CCCCC2)NC(=O)[C@H](CCN)NC(=O)[C@@H](CC(C)C)NC(=O)[C@H](C)N(C)C1=O (stereo partly drawn) [Compound 2141] ({CH2CO}-[Thr(3ξ)]Y(Carboxymethyl)DWV[Bip][Ile(3ξ)][NMeA][dL][Dab][Cha][Val(3-OH)]SC[dN]-NH2; thioether N-14)
12,0.11,CC(C)C[C@@H]1NC(=O)CSC[C@@H](C(=O)N[C@@H](C)C(N)=O)NC(=O)[C@H]([C@@H](C)O)NC(=O)[C@H](C(C)C)NC(=O)[C@H](CC(C)C)NC(=O)[C@H](CCCNC(=N)N)NC(=O)[C@@H](CC(C)C)NC(=O)[C@H](C)N(C)C(=O)[C@H](CCCNC(=N)N)NC(=O)[C@H](Cc2ccc(-c3ccccc3)cc2)NC(=O)[C@H](C(C)C)NC(=O)[C@H](Cc2c[nH]c3ccccc23)NC(=O)[C@H](CC(=O)O)NC(=O)[C@H](Cc2ccc(O)cc2)NC1=O [Compound 1050] ({CH2CO}-LYDWV[Bip]R[NMeA][dL]RLVTCA-NH2; thioether N-14)
13,0.07,CC(C)C[C@@H]1NC(=O)[C@H](CCN)NC(=O)[C@@H](CC(C)C)NC(=O)[C@H](C)N(C)C(=O)[C@H](CCC(=O)O)NC(=O)[C@H](Cc2ccc(-c3ccccc3)cc2)NC(=O)[C@H](C(C)C)NC(=O)[C@H](Cc2c[nH]c3ccccc23)NC(=O)[C@H](CC(=O)O)NC(=O)[C@H](Cc2ccc(O)cc2)NC(=O)[C@H](Cc2ccccc2)NC(=O)CSC[C@@H](C(=O)N[C@@H](CCC(=O)O)C(N)=O)NC(=O)[C@H]([C@@H](C)O)NC(=O)[C@H](C(C)C)NC1=O [Compound 1164] ({CH2CO}-FYDWV[Bip]E[NMeA][dL][Dab]LVTCE-NH2; thioether N-14)
14,0.07,CC(C)C[C@@H]1NC(=O)[C@H](CCN)NC(=O)[C@@H](CC(C)C)NC(=O)[C@H](C)N(C)C(=O)[C@H](CCCNC(=N)N)NC(=O)[C@H](Cc2ccc(-c3ccccc3)cc2)NC(=O)[C@H](C(C)C)NC(=O)[C@H](Cc2c[nH]c3ccccc23)NC(=O)[C@H](CC(=O)O)NC(=O)[C@H](Cc2ccc(O)cc2)NC(=O)[C@H](Cc2cn[nH]c2)NC(=O)CSC[C@@H](C(=O)N[C@@H](C)C(N)=O)NC(=O)[C@H]([C@@H](C)O)NC(=O)[C@H](C(C)C)NC1=O [Compound 1159] ({CH2CO}-[X37]YDWV[Bip]R[NMeA][dL][Dab]LVTCA-NH2; thioether N-14)
15,0.05,CCCC[C@@H]1NC(=O)[C@H](CCCNC(=N)N)NC(=O)[C@@H](CC(C)C)NC(=O)[C@H](C)N(C)C(=O)[C@H](CCCNC(N)=O)NC(=O)[C@H](Cc2ccc(-c3ccccc3)cc2)NC(=O)[C@H](C(C)C)NC(=O)[C@H](Cc2c[nH]c3ccccc23)NC(=O)[C@H](CC(=O)O)NC(=O)[C@H](Cc2ccc(O)cc2)NC(=O)[C@H](CC(N)=O)NC(=O)CSC[C@@H](C(=O)N[C@@H](C)C(N)=O)NC(=O)[C@H]([C@@H](C)O)NC(=O)[C@H](C(C)C)NC1=O [Compound 1285] ({CH2CO}-NYDWV[Bip][Cit][NMeA][dL]R[Nle]VTCA-NH2; thioether N-14)
